Measured values reported in US7084136B2, “Drug composition antagonistic to both PGD2/TXA2 receptors” (Shionogi & Co., Ltd., priority 2000, dated 2006).
Like-named read-outs stand apart in the source and are kept apart here. Marks after values point to notes of the source that are not given here.

Tests used:
TxA2 receptor [1] = assay: Acceleration of vascular permeability of conjunctiva induced by U-46619 (Evans blue dye leakage); type: in vivo, guinea pig; settings: for ED50 TXA2 (U-46619): oral, 1 h before challenge, 0.1% U-46619 instillation, conjunctival dye leakage, guinea pigs; for inhibition of the increase in vascular permeability in conjunctiva caused by U-46619: summary of Table 80, oral 1 h before challenge, guinea pig
Description: Acceleration of Vascular Permeability of Conjunctiva Induced by PGD2 and U-46619
Using male Hartley guinea pigs, PGD2- and TxA2 receptor-mediated increase in conjunctival vascular permeability was produced by instillation of each 10 μl solution of either 0.1% PGD2 or U-46619 (TXA2 receptor agonist) to the both eyes without anesthetization. Immediately after that, Evans blue dye (20 mg/kg) was intravenously injected. 30 min after the challenge, guinea pigs were sacrificed by bleeding under anesthesia with Pentobarbital (30 mg/kg, i.p.) and the tissue of conjunctiva was removed. The dye leaked into the tissue was extracted in formamide 3 ml at 60° C. for more than 24 h, and then centrifuged. The absorbance of the supernatant was measured at 620 nm. The amount of dye was calculated from the calibration curve of Evans blue dye. Each compound was suspended in 0.5% methyl-cellulose and administrated orally at 1 h before the challenge. The antagonistic activity was evaluated by the inhibition ratio against the dye leaked into conjunctiva caused by PGD2 or U-46619 at each dose and then a 50% effective dose of inhibition (ED50 value) of each compound was calculated.

TXA2 receptor [2] = target: T1, TXA2 receptor (Homo sapiens, UniProt P21731); assay: Binding activity to TXA2 receptor ([3H](+)-S-145 sodium salt, human platelet membrane fraction)
T1 construct: The human platelet membrane fraction was prepared in accordance with Experiment 1 (1); from tissue; host or cells: human platelet membrane fraction from blood of healthy volunteers
T1 sequence (P21731 1-343): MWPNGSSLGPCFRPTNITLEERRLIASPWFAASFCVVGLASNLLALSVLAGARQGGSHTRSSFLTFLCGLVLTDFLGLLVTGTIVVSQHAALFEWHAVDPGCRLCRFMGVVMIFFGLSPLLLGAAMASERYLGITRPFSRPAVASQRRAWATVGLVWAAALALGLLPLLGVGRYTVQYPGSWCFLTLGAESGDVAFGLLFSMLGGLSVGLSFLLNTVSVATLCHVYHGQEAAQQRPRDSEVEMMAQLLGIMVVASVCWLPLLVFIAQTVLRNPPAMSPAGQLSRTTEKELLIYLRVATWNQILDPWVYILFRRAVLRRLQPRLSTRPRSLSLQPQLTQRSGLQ
Description: Experiment 2 Binding Activity to TXA2 Receptor
(1) Preparation of Human Platelet Membrane Fraction
The human platelet membrane fraction was prepared in accordance with Experiment 1 (1).
(2) Binding to TXA2 Receptor
To a binding-reaction solution (50 mM Tris/HCl, pH 7.4, 10 mM MgCl2) (0.2 ml) were added the human platelet membrane fraction (0.05 mg) and 2 nM Sodium [^3H](+)-(5Z)-7-[3-endo-[(phenylsulfonyl)amino]bicyclo[2.2.1]hept-2-exo-yl]heptenoate (Japanese Patent Publication (Kokoku) No.79060/1993, hereinafter referred to as (+)-S-145 sodium salt) (26.4 Ci/mmol), and the mixture was reacted at room temperature for 90 min. After the reaction, the resultant mixture was filtered through a glass fiber filter paper and washed several times with cooled physiological saline, then the radioactivity retained on the filter paper was measured. The specific-binding ratio was calculated by subtracting the non-specific binding ratio (the radio activity similarly determined in the presence of 10 μM (+)-S-145 sodium salt) from the total binding. The inhibitory activity of each compound was expressed as the concentration required for 50% inhibition (IC50), which was determined by depicting a substitution curve by plotting the binding ratio (%) in the presence of each compound, where the binding ratio in the absence of a test compound is 100%.

[3] = tested on: Eosinophil Number in Bronchoalveolar Lavage Fluid; assay: Antigen-induced increase in the eosinophil number in bronchoalveolar lavage fluid; type: in vivo, guinea pig; settings: for suppression of eosinophil infiltration: summary of Table 77 to Table 79, bronchoalveolar lavage fluid
Description: Antigen-Induced Increase in the Eosinophil Number in Bronchoalveolar Lavage Fluid.
Bronchoalveolar lavage was performed with 10 mL of saline, after the animals were sensitized and challenged with antigen. The number of total cells in the recovered fluid was stained with Türk and counted using hemocytometer. *: P<0.05, **:P<0.01 vs Vehicle(Dunnett's test), ^##: P<0.01 vs Vehicle(Student's t test). ( ): inhibition %.

Male Hartley guinea pigs = assay: Antigen-induced bronchial hyperresponsiveness (acetylcholine PD200, OVA-sensitized guinea pigs); type: in vivo, guinea pig; settings: for inhibition of the induction of bronchial hyperresponsiveness: summary of Table 74 to Table 76, oral, guinea pig
Description: Comparative Experiment 2 Antigen-Induced Bronchial Hyperresponsiveness
Male Hartley guinea pigs were actively sensitized to ovalbumin (OVA) by inhalation of aerosolized solution of 1% ovalbumin twice at a week interval. One week after the second sensitization, the animals were treated with antihistamine, diphenhydramine (10 mg/kg, i.p.), and then challenged with 1% OVA aerosol for 5 min. Twenty four hours later, acetylcholine at doses at 3.13, 6.25, 12.5, 25, 50 and 100 micro g/kg was sequentially injected into the animals which were anesthetized with pentobarbital (30 mg/kg, i.p.). The bronchoconstriction induced by each dose of acetylcholine was monitored by the modified method of Konzett-Rössler technique, and made a dose-response curve of acetylcholine. Using the dose-response curve, the dose required for 200% increase in bronchoconstriction from baseline (PD200) was calculated in each animal and used as an indication of bronchial responsiveness. Compounds were orally administered 1 hour before antigen challenge. **: P<0.01 vs Vehicle(Dunnett's test), ^##: P<0.01 vs Vehicle(Student's t test).

[4] = comparative experiment in accordance with Experiment 2, read-out: Experiment 2 Antagonistic activity against TXA2 receptor IC50
[5] = 10 mg/kg, bronchoalveolar lavage fluid after antigen challenge

SMILES | ED50 TXA2 (U-46619) (TxA2 receptor [1]) | inhibition of the increase in vascular permeability in conjunctiva caused by U-46619 (TxA2 receptor [1]) | IC50 (TXA2 receptor [2]; [4]) | Total cells [3, 5] | inhibition at 10 mg/kg ([3]; Cavia porcellus, Eosinophil, 10 mg/kg, bronchoalveolar lavage fluid after antigen challenge, read-out: inhibition % (total cells in bronchoalveolar lavage fluid) (converted)) | suppression of eosinophil infiltration [3] | Log PD200 (Male Hartley guinea pigs; 1 mg/kg orally 1 hour before antigen challenge, OVA-sensitized guinea pigs, acetylcholine) | Log PD200 (Male Hartley guinea pigs; 10 mg/kg orally 1 hour before antigen challenge, OVA-sensitized guinea pigs, acetylcholine) | inhibition of the induction of bronchial hyperresponsiveness (Male Hartley guinea pigs) | IC50 (TXA2 receptor [2]; human platelet membrane fraction, 2 nM [3H](+)-S-145 sodium salt, read-out: Binding activity to TXA2 receptor in human platelet membrane fraction IC50) | inhibition % (total cells in bronchoalveolar lavage fluid) [3, 5] | Log PD200 (Male Hartley guinea pigs; 10 mg/kg orally 1 hour before antigen challenge, acetylcholine dose for 200% increase in bronchoconstriction, 24 h after OVA challenge)
O=C(O)CCC/C=C\C[C@H]1[C@@H]2CC[C@@H](C2)[C@@H]1NS(=O)(=O)c1ccccc1 [A, reference compound] | 0.017 mg/kg | suppressed | 3.8 nM | 15.20 ± 2.20 × 10^6 cells/animal | -12% | did not show any inhibitory actions | 1.29 ± 0.04 | 1.61 ± 0.09** | suppressed |  |  | 
Cc1cccn1S(=O)(=O)c1ccc(C(=O)N[C@@H]2[C@@H](CCCC/C=C/C(=O)O)C[C@H]3C[C@@H]2C3(C)C)s1 [II-7I-55a] | 0.030 mg/kg | showed both responses | 2.3 nM | 12.26 ± 1.54 × 10^6 cells/animal |  | significantly suppressed |  |  | suppressed | 2.3 nM | 80% | 1.442 ± 0.055**
